Here are results for 33 molecules from ChEMBL document CHEMBL6182942, “Discovery of a Selective, Novel TGF-βR1 Inhibitor GFH018 for the Treatment of Solid Tumors” (J Med Chem, 2025).

pIC50: −log10 of the molar value.

The species named for one data set is Homo sapiens. The experiment in a line: Selectivity ratio of IC50 for p38alpha (unknown origin) to IC50 for TGFbetaR1 (unknown origin).
Data set [1] has as its target Mitogen-activated protein kinase 14 (Homo sapiens, UniProt Q16539). The experiment in a line: Inhibition of p38alpha (unknown origin) measured after 40 mins in presence of [gamma-33P]ATP by microbeta liquid scintillation counting analysis. Format: toxicity.
A further data set has as its target T1, TGF-beta receptor type-1 (Homo sapiens, UniProt P36897).
T1 sequence (P36897 whole entry): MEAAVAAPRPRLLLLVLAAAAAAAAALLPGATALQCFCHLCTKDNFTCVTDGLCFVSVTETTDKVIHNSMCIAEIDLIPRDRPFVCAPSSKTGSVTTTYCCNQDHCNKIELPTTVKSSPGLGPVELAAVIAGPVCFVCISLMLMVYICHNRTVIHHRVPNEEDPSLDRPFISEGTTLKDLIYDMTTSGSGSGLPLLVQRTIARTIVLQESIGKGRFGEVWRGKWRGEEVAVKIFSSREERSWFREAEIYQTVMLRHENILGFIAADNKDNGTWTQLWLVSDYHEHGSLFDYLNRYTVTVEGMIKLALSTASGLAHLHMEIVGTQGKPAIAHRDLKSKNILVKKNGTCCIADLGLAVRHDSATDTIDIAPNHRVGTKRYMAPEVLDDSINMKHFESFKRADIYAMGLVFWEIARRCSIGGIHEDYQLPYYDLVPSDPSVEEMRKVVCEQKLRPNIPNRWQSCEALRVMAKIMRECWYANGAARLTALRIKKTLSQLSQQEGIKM
The experiment in a line: Inhibition of TGFbetaR1 (unknown origin) in presence of ATP.

Data set [2] is described as follows: Metabolic stability in human liver microsomes assessed as parent compound remaining at 1 uM preincubated for 5 mins followed by NADPH addition by LC-MS/MS analysis. Format: ADME, Microsome. The conditions noted are these: read-out: Stability. A general note: Microsomes from liver hold many membrane-bound enzymes, among them those of drug oxidation.
A further data set relates to NIH3T3. The data set can be described thus: Antiproliferative activity against mouse NIH/3T3 cells by celltitter-glo assay. Format: functional, cell-based.
Data set [3] is described as follows: Metabolic stability in mouse liver microsomes assessed as parent compound remaining at 1 uM preincubated for 5 mins followed by NADPH addition by LC-MS/MS analysis. In kind it is ADME, Microsome. The conditions noted are these: read-out: Stability.
Data set [4] is described as follows: Apparent permeability across apical to basolateral side in dog MDCK-MDR1 cells at 2 uM measured over 150 mins by LC-MS/MS analysis. Format: ADME, cell-based, Canis lupus familiaris.
For a further data set, the system named is MDR1. The experiment in a line: Efflux ratio of apparent permeability in dog MDCK-MDR1 cells at 2 uM measured over 150 mins by LC-MS/MS analysis. Format: ADME, cell-based, Canis lupus familiaris.
Data set [5] is described as follows: Half life in CD-1 mouse at 1 mg/kg, iv by LC-MS/MS analysis. In kind it is ADME, organism-based. Conditions: in vivo.
The nature of data set [6]: Oral bioavailability in CD-1 mouse at 5 mg/kg via gavage by LC-MS/MS analysis. In kind it is ADME, organism-based. The conditions noted are these: in vivo.
The nature of data set [7]: Cmax in CD-1 mouse at 5 mg/kg, po via gavage by LC-MS/MS analysis. In kind it is ADME, organism-based. The conditions noted are these: in vivo.
A short description of data set [8]: AUC (0 to last) in CD-1 mouse at 5 mg/kg, po via gavage by LC-MS/MS analysis. Conditions: in vivo. Format: ADME, organism-based.
Data set [9] can be described thus: Clearance in CD-1 mouse at 1 mg/kg, iv by LC-MS/MS analysis. Format: ADME, organism-based. Conditions: in vivo.
Data set [10] in a line: Half life in CD-1 mouse at 5 mg/kg, po via gavage by LC-MS/MS analysis. In kind it is ADME, organism-based. The conditions noted are these: in vivo.
Data set [11] can be described thus: Volume of distribution at steady state in CD-1 mouse at 1 mg/kg, iv by LC-MS/MS analysis. In kind it is ADME, organism-based. Conditions: in vivo, read-out: Vdss.

Mitogen-activated protein kinase 14, sequence (Q16539 whole entry): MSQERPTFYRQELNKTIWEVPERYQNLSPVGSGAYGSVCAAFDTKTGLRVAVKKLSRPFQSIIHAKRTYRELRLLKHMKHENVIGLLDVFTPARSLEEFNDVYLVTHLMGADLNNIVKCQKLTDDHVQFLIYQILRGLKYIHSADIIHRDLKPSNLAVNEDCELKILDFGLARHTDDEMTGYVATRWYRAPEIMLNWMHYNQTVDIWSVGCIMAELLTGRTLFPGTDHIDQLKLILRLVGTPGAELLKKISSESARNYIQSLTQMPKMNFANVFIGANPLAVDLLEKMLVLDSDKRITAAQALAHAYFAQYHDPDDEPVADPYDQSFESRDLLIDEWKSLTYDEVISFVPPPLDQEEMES

By pIC50 is commonly meant the IC50 on a negative log10 scale, so that one unit is a factor of ten. In the case of `Cc1cccc(-c2nn3c(c2-c2ccc4ncnn4c2/C=C/C(=O)NCCO)CCC3)n1`, in the data set listed under Homo sapiens, the Ratio IC50 turned out to be 24.6. Moreover, the pIC50 in [1] was 5.16; on TGF-beta receptor type-1, 6.55.
Turning to `CCc1cccc(-c2nn3c(c2-c2ccc4ncnn4c2/C=C/C(N)=O)CCC3)n1`, in the data set filed under Homo sapiens, the Ratio IC50 was determined as 12.8. The figures for the pIC50 (in data set [1]; at TGF-beta receptor type-1) were 5.27 and 6.38, respectively.
The corresponding values for `Cc1cccc(-c2nn3c(c2-c2ccc4ncnn4c2/C=C/C(N)=O)CCCC3)n1` are 11.6, 5.80 and 6.87.
The corresponding values for `Cc1cccc(-c2nn3c(c2-c2ccc4ncnn4c2CNc2cc[nH]n2)CCC3)n1` are above 27.4, below 5.00 and 6.44.
With `Cc1cccc(-c2nn3c(c2-c2ccnc(-c4cccc(C(N)=O)c4)c2)CCC3)n1`, at TGF-beta receptor type-1, the pIC50 was 5.46.
Same read-out and setting: the same measure for `Cc1cccc(-c2nn3c(c2-c2ccc4ncccc4c2/C=C/C(N)=O)CCC3)n1`: 6.01.
Turning to `Cc1cccc(-c2nn(C)c(C)c2-c2ccc3ncnn3c2/C=C/C(N)=O)n1`, in the data set filed under Homo sapiens, the Ratio IC50 was above 40. Further, the pIC50 was below 5.00 in [1] and 6.60 on TGF-beta receptor type-1.
As to `Cc1cccc(-c2nn(Cc3cccc(C#N)c3)cc2-c2ccc3ncnn3c2C=CC(N)=O)n1`, the remaining at 1 µM in data set [2] was determined as 56.2%; in data set [3], 9.8%. Also, the results for the pIC50 (in the data set with NIH3T3; in data set [1]; at TGF-beta receptor type-1) were 5.78, below 5.48 and 6.65, respectively.
As to `Cc1cccc(-c2nn3c(c2-c2ccc4ncnn4c2CN2CC(O)C2)CCC3)n1`, the pIC50 at TGF-beta receptor type-1 was below 5.30.
Turning to `Cc1cccc(-c2nn3c(c2-c2ccc4ncnn4c2/C=C/C(=O)NC2CC2)CCC3)n1`, in the data set filed under Homo sapiens, the Ratio IC50 worked out at 18.6. The pIC50 in data set [1] was 5.28; at TGF-beta receptor type-1 it was 6.55.
Regarding `Cc1cccc(-c2nn3c(c2-c2ccc4ncnn4c2CCC(N)=O)CCC3)n1`, on TGF-beta receptor type-1, the pIC50 is 6.03.
The term Papp A→B denotes how fast a substance crosses the layer from the apical side. `CCOC(=O)/C=C/c1c(-c2c(-c3cccc(C)n3)nn3c2CCC3)ccc2ncnn12`: the Papp A→B at 2.5 h, 2 µM in data set [4] was 19.4 ×10⁻⁶ cm/s. For the same molecule, the pIC50 in data set [1] is 5.23; on TGF-beta receptor type-1 it was 6.49.
For orientation: efflux ratio means the permeability from basolateral to apical divided by that in the opposite direction, in the common usage. Consider `Cc1cccc(-c2nn3c(c2-c2ccc4ncnn4c2/C=C/C(=O)O)CCC3)n1`, for which the Papp A→B at 2.5 h, 2 µM in [4] was 0.43 ×10⁻⁶ cm/s. Besides, in the data set with MDR1, the efflux ratio at 2.5 h, 2 µM was found to be 1.46. Moreover, the pIC50 on TGF-beta receptor type-1 is 7.11.
`Cc1cccc(-c2nn3c(c2-c2cn(C)c(=O)c4ccc(C(N)=O)cc24)CCC3)n1`: the pIC50 on TGF-beta receptor type-1 was below 5.30.
In the case of `Cc1cccc(-c2nn3c(c2-c2ccc4ncnn4c2/C=C/C(=O)NO)CCC3)n1`, the Papp A→B at 2.5 h, 2 µM in [4] came out at 0.15 ×10⁻⁶ cm/s. The remaining at 1 µM is 42.5% in [2] and 41.6% in data set [3]. In addition, in the data set listed under Homo sapiens, the Ratio IC50 is above 80. The efflux ratio at 2.5 h, 2 µM in the data set with MDR1 worked out at 43.4. In addition, the pIC50 in [1] is below 5.48; on TGF-beta receptor type-1, 7.39.
For `Cc1cccc(-c2nn3c(c2-c2ccc4ncnn4c2CN2CCNC(=O)C2)CCC3)n1`, on TGF-beta receptor type-1, the pIC50 was below 5.30.
The same measure, in the same setting: the same measure for `Cc1nc(-c2nn3c(c2-c2ccc4ncnn4c2/C=C/C(N)=O)CCC3)ccc1Cl`: 5.31.
For the molecule `CCNC(=O)/C=C/c1c(-c2c(-c3cccc(C)n3)nn3c2CCC3)ccc2ncnn12`, the Ratio IC50 in the data set listed under Homo sapiens worked out at 15.2. The pIC50 is 5.32 in [1] and 6.51 at TGF-beta receptor type-1.
Consider `Cc1cc(C)nc(-c2nn3c(c2-c2ccc4ncnn4c2/C=C/C(N)=O)CCC3)c1`, for which the pIC50 on TGF-beta receptor type-1 was 5.49.
For the molecule `Cc1cccc(-c2nn3c(c2-c2ccc(F)c4c2CN(C(N)=O)CC4)CCC3)n1`, the pIC50 on TGF-beta receptor type-1 was below 5.30.
In the case of `Cc1cccc(-c2nn3c(c2-c2ccnc(Nc4ccc(S(N)(=O)=O)cc4)c2)CCC3)n1`, the Ratio IC50 in the data set filed under Homo sapiens was 0.2. Besides, the pIC50 in data set [1] is 7.82; at TGF-beta receptor type-1, 7.08.
Regarding `Cc1cccc(-c2nn3c(c2-c2ccc4ncsc4c2/C=C/C(N)=O)CCC3)n1`, in the data set filed under Homo sapiens, the Ratio IC50 is 2.3. Further, the negative logarithm of the IC50 (pIC50) in [1] is 6.32; on TGF-beta receptor type-1, 6.68.
By half-life is commonly meant how long it takes for the measured level to halve. A word on the bioavailability: it is dose-corrected exposure relative to a reference, in per cent. A higher bioavailability goes with good availability. By clearance is commonly meant a measure of how efficiently the substance is removed, as volume per time. For `Cc1cccc(-c2nn3c(c2-c2ccc4ncnn4c2/C=C/C(C)(C)O)CCC3)n1`, the half-life was 7.74 min in data set [5] and 50.5 min in data set [10]. This molecule also had a bioavailability in data set [6] of 5.48%. In addition, in data set [4], the Papp A→B at 2.5 h, 2 µM worked out at 8.48 ×10⁻⁶ cm/s. In addition, the results for the remaining at 1 µM in [2] and in data set [3] were 54.8% and 7.8%, respectively. Besides, the Cmax in [7] amounted to 170 nM/ml. The AUClast in [8] is listed as 104 nM.hr/ml. In addition, the pIC50 in the data set on NIH3T3 was 5.79; in [1], below 5.00; on TGF-beta receptor type-1 it was 7.08. Besides, the clearance in data set [9] came out at 105 mL/min/kg. Further, the efflux ratio at 2.5 h, 2 µM with MDR1 amounted to 6.12. Moreover, in data set [11], the Vd came to 0.849 L/kg.
On to `Cc1cccc(-c2nn(C3CCCC3)cc2-c2ccc3ncnn3c2/C=C/C(N)=O)n1`, for which the pIC50 at TGF-beta receptor type-1 is 6.56.
For the molecule `Cc1cccc(-c2nn(C(C)C)cc2-c2ccc3ncnn3c2/C=C/C(N)=O)n1`, on TGF-beta receptor type-1, the pIC50 was 6.37.
As for `Cc1cccc(-c2nn3c(c2-c2ccnc(Nc4ccc(C(N)=O)cc4)c2)CCC3)n1`, the Ratio IC50 in the data set filed under Homo sapiens was found to be 0.3. The values for the pIC50 (in [1]; at TGF-beta receptor type-1) were 7.59 and 7.04, respectively.
For the molecule `Cc1cccc(-c2nn(Cc3cccc(C(F)F)c3)cc2-c2ccc3ncnn3c2/C=C/C(N)=O)n1`, the results for the remaining at 1 µM in data set [2] and in [3] were 9.5% and 0%, respectively. Moreover, the pIC50 is 6.05 with NIH3T3, 5.69 in [1] and 6.79 at TGF-beta receptor type-1.
Take `Cc1cccc(-c2nn3c(c2-c2ccnc4ccc(C(N)=O)cc24)CCC3)n1` [GALUNISERTIB]: the pIC50 in data set [1] was 6.11.
Turning to `CNC(=O)/C=C/c1c(-c2c(-c3cccc(C)n3)nn3c2CCC3)ccc2ncnn12`, the Ratio IC50 in the data set listed under Homo sapiens is above 13. The pIC50 in data set [1] is below 5.48; on TGF-beta receptor type-1, 6.61.
Turning to `Cc1cccc(-c2nn3c(c2-c2ccnc(NC4CCN(C(N)=O)CC4)c2)CCC3)n1`, on TGF-beta receptor type-1, the pIC50 is below 5.30.
Same read-out and setting: the same measure for `Cc1cccc(-c2nn3c(c2-c2ccc4ncnn4c2C(N)=O)CCC3)n1`: 5.37; for `Cc1cccc(-c2nn3c(c2-c2ccnc4c2CN(C(N)=O)CC4)CCC3)n1`: below 5.30.
On the same count and under the same terms, the value for `Cc1cccc(-c2nn3c(c2-c2ccc4nccn4c2/C=C/C(N)=O)CCC3)n1` was 5.99.
